Assay results taken from patent publication US20060293386A1, “Method for treating cancer” (priority 2005, published 2006).
Several values for one entry are separate records, joined by “and”; a condition that tells them apart may be missing. Equal entries are not always repeated. Entries after “also recorded” stand apart in the source; their conditions may differ. Where two headings read alike, the source gives them in different places.

What was measured:
[1] = test system: HCC (hepato cellular carcinoma); experiment: Transition of AFP (tumor marker) values in GM-administered HCC patients; assay type: in vivo; details: for Average AFP value: GM-administered HCC group with abnormal AFP values; for Effect on AFP values (in words): GM-administered HCC patients, 100-300 mg intravenous drip infusion
Description: (§1) AFP (Alpha-fetoprotein) and PIVKA-II (isomer of prothrombin) were used as tumor markers of HCC. […] In general, it is often difficult to determine the shrinkage of cancer lesions by CT scanning or echo imaging immediately after conducting TAE, therefore these markers are used to determine the effects. In Japan, the conventional Alpha-feto Riabeads method has been replaced by the Chemilumi ACS-AFP method since May 2004. The former is a radiation immunoassay whose standard value is ≦20. Meanwhile, the latter is a chemiluminescence immunoassay whose standard value is ≦10.
HCC patients and AFP-positive (precancerous lesions or regenerating hepatocytes) patients without HCC observed on the images ([…] as “GM”) dissolved in 150-300 ml of physiological saline or of 5% glucose by intravenous drip infusion. GM is originally a drug applicable to chronic pancreatitis, acute pancreatitis, and DIC (disseminated intravascular coagulation), however, informed consent was obtained before the administration. And in allergy cases, the starting dose was 75-100 mg and increased. The nonadministered group is GM-nonadministered HCC cases.
In general, AFP and PIVKA-II values are considered to represent cancer viability in hepato cellular carcinoma cases. GM is considered to suppress the viability, since GM suppresses AFP and PIVKA-II values. […]
As described above, GM administration after TAE was conducted 10 days after TAE was completed. And GM was considered effective if suppression was observed 4 months after TAE was completed.

[2] = test system: HCC (hepato cellular carcinoma); experiment: Transition of PIVKA-II (tumor marker) values in GM-administered HCC patients; assay type: in vivo
Description: as §1
HCC patients and AFP-positive (precancerous lesions or regenerating hepatocytes) patients without HCC observed on the images (on CT or echo exam) were given 100-300 mg of gabexate mesilate (hereinafter referred to as “GM”) dissolved in 150-300 ml of physiological saline or of 5% glucose by intravenous drip infusion. GM is originally a drug applicable to chronic pancreatitis, acute pancreatitis, and DIC (disseminated intravascular coagulation), however, informed consent was obtained before the administration. And in allergy cases, the starting dose was 75-100 mg and increased. The nonadministered group is GM-nonadministered HCC cases.
In general, AFP and PIVKA-II values are considered to represent cancer viability in hepato cellular carcinoma cases. […]

[3] = Side effects of GM among 22 cases; assay type: in vivo, patients; details: among 22 cases including pancreatic disease cases
Description: Side effects of GM used in the present invention already include shock, anaphylaxis, bleeding tendency, granulocytopenia, fall in blood pressure, elevation of GOT and GPT, facial flushing and the like; among 22 cases including pancreatic disease cases, shock: 0 case, anaphylaxis: 3 cases, bleeding tendency: 0 case, slight granulocytopenia: 22 cases, significant fall in blood pressure: 0 case, elevation of GOT and GPT: 2 cases, and withdrawal: 0.

CCOC(=O)c1ccc(OC(=O)CCCCCN=C(N)N)cc1.CS(=O)(=O)O [GM, gabexate mesilate]
Maximum AFP value ([1]; 0 M, GM-administered HCC group): 18.9 ng/mL | Minimum AFP value ([1]; 0 M, GM-administered HCC group): 6.5 | Average AFP value ([1]; 0 M, 7 cases): 11.1 ± 4.8 and 11.1 | AFP value ([1]; 0 M, individual GM-administered HCC patient, Chemilumi ACS-AFP method): 18.9 and 15.5 and 8.1 and 7.2 and 8.5 and 6.5 and 13.0 | Increase and decrease in AFP value, Δ 1 M ([1]; 1 M versus 0 M, individual GM-administered HCC patient): −2.7 and −1.3 and 3.6 and 2.4 and 3.3 and 0.3 and −3.4 | Average difference of AFP from the value at 0M ([1]; 1 M, GM-administered HCC group): 0.3 and 0.3143 | Maximum AFP value ([1]; 1 M, GM-administered HCC group): 19.2 ng/mL | Minimum AFP value ([1]; 1 M, GM-administered HCC group): 5.4 | Significant difference of AFP versus 0M ([1]; 1 M, GM-administered HCC group): none | Average AFP value ([1]; 1 M, 7 cases): 11.4 ± 5.1 and 11.4 | AFP value ([1]; 1 M, individual GM-administered HCC patient, Chemilumi ACS-AFP method): 19.2 and 12.1 and 5.4 and 5.9 and 8.9 and 16.3 | Increase and decrease in AFP value, Δ 2 M ([1]; 2 M versus 0 M, individual GM-administered HCC patient): −1.4 and 3.1 and −0.3 and 2.2 and 1.5 and −6.8 | Maximum AFP value ([1]; 2 M, GM-administered HCC group): 20.4 ng/mL | Minimum AFP value ([1]; 2 M, GM-administered HCC group): 5.8 | Significant difference of AFP versus 0M ([1]; 2 M, GM-administered HCC group): none | Average AFP value ([1]; 2 M, 6 cases): 11.3 ± 5.7 and 11.3 | AFP value ([1]; 2 M, individual GM-administered HCC patient, Chemilumi ACS-AFP method): 20.4 and 8.7 and 5.8 and 11.6 and 6.2 and 15.2 | Increase and decrease in AFP value, Δ 3 M ([1]; 3 M versus 0 M, individual GM-administered HCC patient): −3 and −3.2 and 5.1 and 0.2 and 3.7 and 4.1 and −9.4 | Maximum AFP value ([1]; 3 M, GM-administered HCC group): 23 ng/mL | Minimum AFP value ([1]; 3 M, GM-administered HCC group): 4.0 | Significant difference of AFP versus 0M ([1]; 3 M, GM-administered HCC group): none | Average AFP value ([1]; 3 M, 7 cases): 10.7 ± 7.2 and 10.7 | AFP value ([1]; 3 M, individual GM-administered HCC patient, Chemilumi ACS-AFP method): 23.0 and 6.1 and 5.1 and 4.0 and 13.6 and 6.7 and 16.7 | AFP value ([1]; 3rd case of TABLE 2, 20 mg of GM, when HCC was roughly diagnosed by contrast CT): 8-9 | Current AFP value ([1]; 4th case of TABLE 2, 200 mg of GM after TAE): around 7 | Highest AFP value reached ([1]; 4th case of TABLE 2, GM reduced to 75-100 mg because of allergy, before TAE): up to 70 | Statistical difference of AFP between each month and 0M (in words) ([1]; GM-administered HCC patients of TABLE 2): no significant difference | Effect on AFP values (in words) [1]: the elevation of AFP values was suppressed; also recorded: elevation of PIVKA-II and AFP values was not observed | Effect on AFP values (in words) ([1]; listed as gabexate mesilate): dropped, or their elevation was suppressed; also recorded: suppressed the elevation of AFP values for a prolonged period | Number of times of effective GM administrations after TAE ([1]; cases of TABLE 2, effective if suppression observed 4 months after TAE): 6 | Current AFP value ([1]; first case of TABLE 2, person, GM 200-300 mg with repeated TAE): 9.0 | Number of times of effective GM administrations, single GM administration ([1]; single GM-administered cases including 4 cases with abnormal AFP values of unknown etiology, effective if markers suppressed in one month): 7 | Effect on PIVKA-II values (in words) [2]: elevation of PIVKA-II and AFP values was not observed | Effect on PIVKA-II values (in words) ([2]; listed as gabexate mesilate): dropped, or their elevation was suppressed | Side effect: anaphylaxis [3]: 3 cases | Side effect: bleeding tendency [3]: 0 case | Side effect: elevation of GOT and GPT [3]: 2 cases | Side effect: shock [3]: 0 case | Side effect: significant fall in blood pressure [3]: 0 case | Side effect: slight granulocytopenia [3]: 22 cases | Withdrawal [3]: 0
